Here are results for 72 compounds from PubChem BioAssay AID449762 (Southern Research Specialized Biocontainment Screening …, 2010).

The assay deals with M. tuberculosis H37Rv growth inhibition, 7H9 media. Kind of assay: M. tuberculosis growth inhibition, HTS (AID 449762).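 As to all read-outs here: bacterial growth assessed after seven days of incubation.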 The note with it: for IC90: measured here: IC90 growth inhibition.

SMILES strings stand for the structures. Records with an inconclusive call do not appear.

With `Cc1ccc(-c2ccc(/C=N/c3ncn[nH]3)o2)cc1Cl`, the IC50 is 98.8 µM and the IC90 was over 100 µM. On the same counts, the results for `O=C(NCCC1=CCCCC1)NC12CC3CC(CC(C3)C1)C2` are under 0.2 µM and 0.34 µM. For `O=C(C/C=N\OCc1ccc([N+](=O)[O-])cc1)Nc1ccc(F)cc1F` the same measures were 20.3 µM and 98.4 µM. On the same counts, the results for `O=C(NNc1nc2ccccc2s1)c1ccccc1F` are 22.2 µM and over 100 µM.

For the compound `COc1ccc(SN=C2C(C)=CC(=O)C=C2C)cc1`, the IC50 was 11.9 µM and the IC90 amounted to 13.5 µM. For `CCCCOc1ccc(Br)cc1/C(C)=N/NC1=NCCN1` the same measures were 20.7 µM and 33.3 µM.

Consider `CCCCNc1nc(N(C)c2ccccc2)nc(-n2ccnc2)n1`, for which the IC50 was 10.8 µM and the IC90 is over 25 µM. Take `Cc1cc(C(=O)COC(=O)C2=COCCO2)c(C)n1-c1cccc(F)c1`: the IC50 is 4.83 µM and the IC90 is over 100 µM. For `COc1cccc(NC(=O)C2CCN(Cc3cnn(-c4ccccc4)c3-n3cccc3)CC2)c1` the same measures were 48.4 µM and 56.2 µM.

With `CCOC(=O)c1cc(C)nc(Sc2ccc(C)cc2)c1C#N`, the IC50 was 4.4 µM and the IC90 came to 11.3 µM. On the same counts, the results for `O=C(NC1CCCCCC1)c1ccccc1-c1ccccc1` are 18.4 µM and over 100 µM. On the same counts, the results for `O=C1CCc2ccc(OCCCCN3CCN(c4cccc(Cl)c4Cl)CC3)cc2N1` are 13.1 µM and over 100 µM. On the same counts, the results for `CC(C)OC(=O)c1ccc(NC(=S)NC(=O)c2cncc(Br)c2)cc1` are 52.4 µM and over 100 µM. Take `c1ccc2c(c1)CCN(c1nc(CN3CCOCC3)nc3sc4c(c13)CCCC4)C2`: the IC50 was 13.8 µM and the IC90 stood at 33.6 µM. For `Nc1cc(Cl)c2nonc2c1[N+](=O)[O-]` the same measures were 5.83 µM and 6.64 µM. Take `Cc1c(Cl)ccc2c1NC(=O)[C@]21N[C@@H](Cc2ccccc2)[C@H]2C(=O)N(c3ccc(F)cc3)C(=O)[C@H]21`: the IC50 was 23 µM and the IC90 is 26.1 µM. For `O=C1N[C@@H](Cc2ccccc2)C(=O)N2[C@H]3Nc4ccccc4[C@@]3([C@]34C[C@H]5C(=O)N[C@@H](Cc6ccccc6)C(=O)N5[C@H]3Nc3ccccc34)C[C@@H]12` the same measures were 79.1 µM and over 100 µM.

Take `Clc1ccc(CNc2nc(CN3CCOCC3)nc3scc(-c4ccccc4)c23)cc1`: the IC50 was 17.3 µM and the IC90 is 43.6 µM. For `C/C(=N\Nc1nc2c(s1)CCCC2)c1ccccc1` the same measures were 18.6 µM and 34.4 µM. For the compound `COC(=O)C(CCSC)NC(=O)c1cn(-c2ccc(OC)cc2)c(=O)c2ccccc12` (stereo unspecified), the IC50 was 12 µM and the IC90 was over 100 µM. For `O=C(OCc1ccccc1)c1cccc(-c2nnn(Cc3ccccc3)n2)c1` the same measures were 67.7 µM and over 100 µM. For `C=CCOc1c(Br)cc(CNc2nccs2)cc1OC` the same measures were 22.3 µM and 40.9 µM. On the same counts, the results for `COc1cc(NC(=O)c2cnc(N)s2)cc(C(=O)Nc2cccc(C(F)(F)F)c2)c1` are 52 µM and 78.8 µM.

Regarding `NN(Cc1ccccc1)C(=S)Nc1ccc(Cl)c(Cl)c1`, the IC50 was 33.8 µM and the IC90 stood at 58.1 µM. For `Cc1ccccc1Cn1cc(NC(=O)c2noc(C(C)C)c2[N+](=O)[O-])cn1` the same measures were 5.11 µM and 8.72 µM. `NC(N)=N/N=C/c1ccc(N(c2ccccc2)c2ccccc2)cc1`: the IC50 was 10.9 µM and the IC90 came out at 13.7 µM.

Turning to `Cc1cccc(C)c1Nc1c(-c2ccccn2)nc2ccccn12`, the IC50 was 2.18 µM and the IC90 was 5.73 µM.

In the case of `OC(COC(c1ccc(Cl)cc1)c1ccc(Cl)cc1)CN1CCc2ccccc2C1` (stereo unspecified), the IC50 is 18.8 µM and the IC90 stood at 24.7 µM. On the same counts, the results for `Cc1nn2c(NCc3ccccn3)cc(C(C)C)nc2c1-c1ccccc1` are 2.34 µM and 3.29 µM. As to `COC(=O)c1cc(-c2cccc(OC)c2)on1`, the IC50 was 0.37 µM and the IC90 was over 100 µM. On the same counts, the results for `Cc1cc(C)n2nc(N)c(N=Nc3ccccc3)c2n1` are 2.9 µM and 3.27 µM. `Cc1[nH]n(-c2ccccc2)c(=S)c1C=NCCCN=Cc1c(C)[nH]n(-c2ccccc2)c1=S` had an IC90 of over 100 µM. Turning to `Cc1c(Cl)ccc2sc(N3CCN(C(=O)C4=COCCO4)CC3)nc12`, the IC50 is 26.2 µM and the IC90 stood at 59 µM. On the same counts, the results for `COc1ccc(C2Oc3ccccc3C3=C2C(c2cccs2)n2ncnc2N3)cc1` (stereo unspecified) are 51.2 µM and over 100 µM.

On to `CC(C)(C)Nc1nc(NC(C)(C)C)nc(-n2ccnc2)n1`, for which the half-maximal inhibitory concentration (IC50) was 14.6 µM and the IC90 was over 100 µM. On the same counts, the results for `CC(=O)Nc1sc2c(c1-c1nc3ccccc3s1)CCN(C(C)C)C2` are 5.88 µM and 6.66 µM.

As for `Cc1cc([N+](=O)[O-])c2ccccc2[n+]1[O-]`, the IC50 was 5.76 µM and the IC90 is 9.62 µM. On the same counts, the results for `COc1ccc(Cl)cc1C(=O)O/N=C(\N)c1ccccn1` are 25.4 µM and over 100 µM. For `Cc1occc1-c1nnc(SCC(=O)NCCc2ccccc2)o1` the same measures were 9.83 µM and 20 µM. On the same counts, the results for `c1ccc(/N=C2\N=C(Nc3ccccn3)c3ccccc32)nc1` are 1.08 µM and 1.91 µM. In the case of `CNC[C@@H](Cc1ccccc1)NC[C@@H](CC1CCCCC1)NCCCc1ccccc1`, the IC50 is 7.96 µM and the IC90 worked out at 9.49 µM. On the same counts, the results for `CCCCCNc1nc(N2CCCC2)c2c(c1C#N)CCN(C)C2` are 83.7 µM and over 100 µM. For `CC(C)Cn1c([N+](=O)[O-])nc2c1c(=O)[nH]c(=O)n2C` the same measures were 5.93 µM and 8.91 µM. On the same counts, the results for `O=C(C[n+]1cc(-c2ccc(Cl)cc2)n2c1CCC2)Nc1nc(-c2ccccc2)cs1` are 17 µM and 25.1 µM.

On to `O=[N+]([O-])c1ccc(-c2nc(-c3cccs3)c(-c3cccs3)[nH]2)cc1`, for which the IC50 was 21.7 µM and the IC90 was over 100 µM. For `Cc1cccc(-c2ncc(CN3CCC(CO)(CCCc4ccccc4)CC3)cn2)c1` the same measures were 44.1 µM and 73.5 µM. For `Cc1nc(NC(=O)CC(C)C)sc1-c1csc(Nc2ccc(Cl)cc2Cl)n1` the same measures were 46.3 µM and 52.5 µM. For `CC(C)NC(=O)c1sc(=S)n2c1[nH]c(=O)c1ccc(C(=O)NCCc3ccc(Cl)cc3)cc12` the same measures were 0.3 µM and 0.49 µM. With `Fc1cccc(CCN2CCNC[C@H]2Cc2cccc3ccccc23)c1`, the IC50 was 36.6 µM and the IC90 came to 43.2 µM.

Take `CC1C/C(=C\c2cccnc2)C(=O)/C(=C/c2cccnc2)C1` (stereo unspecified): the IC50 is 3.38 µM and the IC90 was 8.85 µM. For `COc1cc(/C=C/C(=O)c2c(O)n(CCc3ccccc3)c(=O)[nH]c2=O)ccc1O` the same measures were 4.59 µM and 11.5 µM. On the same counts, the results for `COc1ccc(/C=N/Nc2cc(N3CCCC3)nc(N3CCCC3)n2)cc1` are 16.3 µM and 25 µM. On the same counts, the results for `COc1ccc(/C=N/Nc2cc(C)nc3ccc(OC)cc23)c(OC)c1` are 9.39 µM and 11.9 µM. As to `COc1ccc(C(=O)Cn2nc(CNc3ccc(Br)cc3)[n+]3c2CCCCC3)cc1`, the IC50 was 9.77 µM and the IC90 amounted to 13.7 µM. For `O=C(Oc1ccc(-c2cn3c(n2)SCC3)cc1)c1ccccc1` the same measures were 38.2 µM and over 100 µM. Consider `S=c1nc[nH]c2nc[nH]c12`, for which the half-inhibitory concentration (IC50) is 3.08 µM and the IC90 came to 3.43 µM.

Turning to `CN(Cc1ccc(Cl)s1)C(=O)CCl`, the IC50 is 0.66 µM and the IC90 was determined as 0.91 µM. With `O=C(NC(C(=O)N/N=C/c1cccc2ccccc12)c1n[nH]c(=O)c2ccccc12)c1ccccc1` (stereo unspecified), the IC50 is 53.2 µM and the 90% effect concentration (IC90) was over 100 µM.

For `Cc1nc(-c2nc(-c3c(C(=O)NNC(=O)c4ccc(Cl)cc4)noc3C)cs2)cs1`, the IC50 is 7.57 µM and the IC90 was determined as 18.2 µM.

As for `O=C(NNC(=O)C12CC3CC(CC(C3)C1)C2)c1ccccn1`, the IC50 is 5.36 µM and the IC90 was found to be 23.5 µM. On to `CCCOc1cccc(-c2nn(-c3ccccc3)cc2/C=C(\C#N)C(=O)NCCCn2ccnc2)c1`, for which the half-maximal inhibitory concentration (IC50) was 44.7 µM and the IC90 came to 62.3 µM.

Regarding `O=C1CCCC2=C1C1c3ccccc3C(=O)N1c1ccc(C(=O)c3ccccc3)cc1N2` (stereo unspecified), the IC50 is 16 µM and the IC90 amounted to 21.9 µM. In turn, `O=C(COc1cc(O)c2c(=O)c3ccccc3oc2c1)OCc1ccccc1` had an IC90 of over 100 µM. As for `COc1cccc(C2C3=C(N=c4s/c(=C\c5cccc(O)c5)c(=O)n42)c2ccccc2CC3)c1OC` (stereo unspecified), the IC50 is 23.3 µM and the IC90 stood at 27.1 µM. On the same counts, the results for `c1ccc(CC2CCN(C3=Nc4cccc5cccc3c45)CC2)cc1` are 29.3 µM and 38.1 µM.

On to `Cc1ccc2[nH]c3c(N4CCN(Cc5ccccc5)CC4)ncnc3c2c1`, for which the IC50 is 22.3 µM and the IC90 came out at 42.6 µM. With `O=C(c1cc(COc2ccc(F)cc2F)on1)N1CCCC(c2ccccc2)C1` (stereo unspecified), the IC50 was 17.6 µM and the IC90 was 39.8 µM. For `O=C(COc1cccc(Oc2ccccc2)c1)Nc1ncccn1` the same measures were 37.7 µM and over 100 µM. For `CCCCN(CCCC)CCC(O)c1cc2c(Cl)cc(Cl)cc2c2cc(C(F)(F)F)ccc12` (stereo unspecified) the same measures were 16.6 µM and 25.7 µM. For `Nc1ccc(N=Nc2ccccc2)c(N)n1`, the IC90 is over 100 µM. As for `CC(=O)Nc1ccc(N2C(C(C)=O)=NN(c3ccc(Cl)cc3)C2c2sccc2C)cc1` (stereo unspecified), the IC50 is 83.9 µM and the concentration for an effect of 90% (IC90) stood at 93.1 µM. For `CN(C)CCCN(C(=O)c1cc(-c2cccs2)nc2ccccc12)c1nc2ccc(F)cc2s1` the same measures were 41 µM and 55.5 µM.

As usually defined, the IC50 is the concentration needed to halve the response being measured. What is called IC90 is the concentration at which the effect reaches the 90% level. A higher IC90 goes with weaker potency.
